Test results as given in patent US6890917B2, “Geldanamycin derivative and method of treating cancer using same” (The United States of America as represented by the …, priority 2001, dated 2005).

System: standard panel of 12 human tumor cell lines (NCI-H23, NCI-H522, MDA-MB-231, MDA-MB-435, SW-620, COLO 205, LOX IMVI, UACC-62, OVCAR-3, OVCAR-5, U251, SF295)
Assay: Hollow fiber assay (HFA) with stable endpoint MTT assay, compound given to mice carrying intraperitoneal and subcutaneous fiber implants
Format: in vivo
Parameters: Total HFA Score: scale not given here
Conditions: for Total HFA Score / IP Score / SC Score: HFA in mice; for Total HFA Score: IP + SC scores; for IP Score: intraperitoneal fiber implants; for IP Score / SC Score: 2 points per 50% or greater reduction in viable cell mass; for SC Score: subcutaneous fiber implants; for in vivo anti-cancer activity compared with Compound C (in words): intraperitoneal injection, Table 1
Procedure: Compounds A-C were tested in a hollow fiber assay for in vivo activity. Each compound was tested against a standard panel of 12 human tumor cell lines including NCI-H23, NCI-H522, MDA-MB-231, MDA-MB-435, SW-620, COLO 205, LOX IMVI, UACC-62, OVCAR-3, OVCAR-5, U251 and SF295. The cell lines were cultivated in RPMI-1640 containing 10% FBS and 2 mM glutamine. On the day preceding hollow fiber preparation, the cells were given a supplementation of fresh medium to maintain log phase growth. For fiber preparation, the cells were harvested by standard trypsinization technique and resuspended at the desired cell density. The cell suspensions were flushed into 1 mm polyvinylidene fluoride (PVDF) hollow fibers (MW exclusion of 500,000 Da) and subsequently heat-sealed at 2 cm intervals. The samples generated from these seals were placed into tissue culture medium and incubated at 37° C. in 5% CO2 for 24-48 hours prior to implantation. A total of 3 different tumor cell lines were prepared for each experiment so that each mouse received 3 intraperitoneal implants (1 of each tumor cell line) and 3 subcutaneous implants (1 of each tumor cell line). A total of 4 experiments were conducted on each mouse (3 cell lines/experiment×4 experiments=12 cell lines).
On the day of implantation, samples of each tumor cell line were quantitated for viable cell mass by a stable endpoint MTT assay so that the time 0 cell mass was known. In the MTT assay, the fibers were incubated in 6-well plates (1-6 fibers/well) with 3 mL of pre-warmed (37° C.) complete medium containing MTT (1 mg/mL) (Sigma) for 4 hours at 37° C. in 5% CO2. The MTT solution was aspirated and the fibers were washed with 2 mL of saline containing 2.5% protamine sulfate overnight at 4° C. A second wash was performed with 2 mL of saline containing 2.5% protamine sulfate, and the fibers were maintained at 4° C. for a minimum of 2 hours. The fibers were then removed from the protamine sulfate, individually wiped, placed in a 24-well plate (1 fiber/well), cut in half and dried overnight in a biosafety hood. To extract the formazan, DMSO was added (0.25 mL) to each well and the plates were rotated for 4 hours at room temperature. The extracted samples were transferred to 96-well plates and the OD was determined at 540 nm. From these spectrophotomeric measurements, the cytostatic and cytocidal capacities of the test compound were assessed.
Following implantation of the hollow fibers, mice were treated with one of the compounds, as listed in Tables 1 and 2 starting on day 3 or 4 following fiber implantation and continuing once daily for a total of 4 doses. Each compound was either assessed by intraperitoneal injection (Example 1) or by oral administration (Example 2) at 2 dose levels with 3 mice/dose/experiment. Vehicle controls consisted of 6 mice receiving the compound diluent only. The fibers were collected from the mice on the day following the fourth compound treatment and subjected to the stable endpoint MTT assay. The optical density of each sample was determined spectrophotometrically at 540 nm and the mean of each treatment group was calculated. The percent net cell growth in each treatment group was determined and compared to the percent net cell growth in the vehicle treated controls.
In the context of the following examples, compounds were selected for further testing (e.g., time/dose exposure studies, preliminary pharmacology studies, subcutaneous xenograft efficacy studies) on the basis of several hollow fiber assay criteria, including (1) a reduction in net cell growth of 50% or greater in 10 of the 48 possible test combinations; (2) a reduction in net cell growth of 50% or greater in a minimum of 4 of the 24 distant site combinations (SC score); and/or (3) cell kill of 1 or more cell lines in either implant site (reduction in the viable cell mass below the level present at the start of the experiment). […]

[1] = compound by intraperitoneal injection once daily for 4 days, 2 dose levels (A, B: 75 and 50 mg/kg/dose; C: 20 and 13.4 mg/kg/dose)
[2] = compound orally (PO) once daily for 4 days, 75 and 50 mg/kg/dose

Row | Compound | Total HFA Score [1] | IP Score [1] | SC Score [1] | in vivo anti-cancer activity compared with Compound C (in words) (HFA) | Total HFA Score [2] | IP Score [2] | SC Score [2] | in vivo anti-cancer activity by oral administration (in words) (HFA, oral administration, Table 2)
1 | CO[C@H]1/C=C\C=C(/C)C(=O)NC2=CC(=O)C(NCCN(C)C)=C(C[C@@H](C)C[C@H](OC)[C@H](O)[C@@H](C)/C=C(\C)[C@@H]1OC(N)=O)C2=O [Compound A, 17-Dimethylaminoethylamino-17-demethoxygeldanamycin] | 30 | 20 | 10 | significantly greater in vivo anti-cancer activity |  |  |  | 
2 | CO[C@H]1/C=C\C=C(/C)C(=O)NC2=CC(=O)C(NCCN(C)C)=C(C[C@@H](C)C[C@H](OC)[C@H](O)[C@@H](C)/C=C(\C)[C@@H]1OC(N)=O)C2=O.Cl [Compound B, 17-Demethoxy-17-[[2-(dimethylamino)ethyl]amino]geldanamycin hydrochloride] | 42 | 24 | 18 | significantly greater in vivo anti-cancer activity | 20 | 10 | 10 | significant in vivo anti-cancer activity
3 | CO[C@H]1/C=C\C=C(/C)C(=O)NC2=CC(=O)C(NCCCN(C)C)=C(C[C@@H](C)C[C@H](OC)[C@H](O)[C@@H](C)/C=C(\C)[C@@H]1OC(N)=O)C2=O [Compound C, 17-Dimethylaminopropylamino-17-demethoxygeldanamycin, reference compound] | 16 | 14 | 2 |  |  |  |  | 
